# Measurements: PMC11926411 (Cell Structure and Function, 2019)
# Key:
# class III PI3K Vps34 = test: Time-lapse confocal imaging of endosomal markers after Vps34 inhibition; conditions: Cos-1 cells, Vps34-IN1 treatment
# Excerpt: Cells were imaged with an IX-83 microscope (Olympus, Tokyo, Japan) equipped with a BioPoint MAC6000 filter and shutter control unit (Ludl Electronic Products, Hawthorne, NY, USA), an automated XY-stage (Chuo Precision Industrial, Tokyo, Japan), an sDISK spinning disk confocal microscope (Andor Technology, Belfast, UK), and a Rolera EM-C^2 electron multiplying cooled charge-coupled device camera (QImaging, Surrey, BC, Canada). For epifluorescence microscopy, cells were illuminated with a SOLA Light Engine (Lumencor, Beaverton, OR, USA) and the following excitation and emission filters were used: FF02-438/24 and FF01-483/32 (Semrock, Rochester, NY, USA) for CFP; BP470-490 and BP510-550 (Olympus) for FITC; FF02-438/24 and FF01-542/27 for FRET; and BP520-550 and BA580IF (Olympus) for Alexa Fluor 594 and mRFP. For spinning-disk confocal imaging, cells were illuminated with a four-line (405, 488, 561, and 633 nm) laser module (Spectral Applied Research, Hamilton, ON, Canada) and the following emission filters were used: FF01-483/32 for CFP, FF01-542/27 for FRET, and BA580IF for TagRFP. Typical exposure times for 2×2 binning were 0.3 s. […]
# Twenty-four hours after transfection, the cells were subjected to time-lapse confocal microscopy. […] P<0.0001 compared with before treatment, as calculated by repeated-measures ANOVA.
# Ras-PI3K complex = format: cell-based; conditions: Cos-1 cells, VN-H-Ras G12V, time-lapse confocal after Vps34-IN1; n=12
# Experimental: Imaging of BiFC and FRET, and their data analysis were performed essentially as described previously ([Fujioka et al., 2013]; [Ohba et al., 2003]; [Tsutsumi et al., 2009]). In brief, cells plated on a collagen-coated, 35-mm-diameter glass-base dish were transfected with expression vectors. After 24 hours, cells were serum-starved in phenol red-free DMEM/F12 (Thermo Fisher Scientific) for 4 hours and placed in a stage-top incubation chamber (Live Cell Instrument, Soul, Korea) that was maintained at 37°C. Beginning at 10 min, cells were stimulated with 100 ng/ml EGF. BiFC images were acquired using a spinning disk mode, whereas FRET images were obtained using epifluorescence mode. To represent FRET efficacy, the FRET/CFP emission ratio was calculated as the quotient of background-subtracted FRET and CFP images. To stabilize jittery image stacks of time-lapse data set, ‘Image Stabilizer’ plug-in of ImageJ (https://imagej.nih.gov/ij) was used. MetaMorph software converts image stacks of time-lapse data set into one QuickTime movie.
# Vesicles positive for a BiFC signal (from Ras-PI3K complex) or TagRFP (EEA-1) were extracted with the use of the ‘Top Hat’ module of MetaMorph software, and colocalization of the Ras-PI3K complex with EEA-1 was quantified with the use of the ‘measure colocalization’ function of the software.
structure (smiles),measurement,setting,value
CC(C)(O)CNc1ncc(-c2ccnc(Nc3ccnc(Cl)c3)n2)c(CC2CC2)n1 [Vps34-IN1],Endosomal localization of CFP-tagged Rab5,class III PI3K Vps34,accumulated in the endosome
same,Fluorescence signal in endosomes of RFP-tagged EEA-1,class III PI3K Vps34,dramatically dispersed
same,Amount of the Ras-PI3K complex in the endosome (BiFC),Ras-PI3K complex,"partially, but significantly reduced"
